Values after ≈ are worked out from the molar mass of the structure shown. Active and inactive are the calls of the source. The calls are words filed in the database; no cut-off is given here.
Legend:
[1] = In vivo biased agonist activity at 5-HT1A receptor in rat prefrontal cortex assessed as serum concentration causing 50% increase in ERK1/2 phosphorylation level after oral administration measured 15 mins post drug administration
[2] = biological target: T1, Adrenergic receptor alpha-1 (Rattus norvegicus, UniProt P15823+P23944+P43140); assay: Displacement of [3H]-prazosin from alpha1 adrenergic receptor in rat cortex measured after 30 mins by microbeta2 scintillation counting method; format: tissue-based
T1 sequence (P15823 whole entry): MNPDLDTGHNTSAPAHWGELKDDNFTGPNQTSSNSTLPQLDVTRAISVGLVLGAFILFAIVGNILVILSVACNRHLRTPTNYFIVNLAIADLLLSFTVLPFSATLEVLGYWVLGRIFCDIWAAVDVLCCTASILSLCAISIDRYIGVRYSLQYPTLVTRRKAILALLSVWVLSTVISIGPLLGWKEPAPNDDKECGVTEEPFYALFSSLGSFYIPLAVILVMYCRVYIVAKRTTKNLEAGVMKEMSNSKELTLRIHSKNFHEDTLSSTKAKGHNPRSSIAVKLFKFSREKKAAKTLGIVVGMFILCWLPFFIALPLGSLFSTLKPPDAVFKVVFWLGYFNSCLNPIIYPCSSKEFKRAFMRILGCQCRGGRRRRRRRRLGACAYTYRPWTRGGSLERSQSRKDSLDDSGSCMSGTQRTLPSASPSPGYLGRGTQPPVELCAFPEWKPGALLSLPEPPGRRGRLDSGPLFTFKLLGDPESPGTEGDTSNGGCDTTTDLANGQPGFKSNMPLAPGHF
T1 sequence (P23944 whole entry): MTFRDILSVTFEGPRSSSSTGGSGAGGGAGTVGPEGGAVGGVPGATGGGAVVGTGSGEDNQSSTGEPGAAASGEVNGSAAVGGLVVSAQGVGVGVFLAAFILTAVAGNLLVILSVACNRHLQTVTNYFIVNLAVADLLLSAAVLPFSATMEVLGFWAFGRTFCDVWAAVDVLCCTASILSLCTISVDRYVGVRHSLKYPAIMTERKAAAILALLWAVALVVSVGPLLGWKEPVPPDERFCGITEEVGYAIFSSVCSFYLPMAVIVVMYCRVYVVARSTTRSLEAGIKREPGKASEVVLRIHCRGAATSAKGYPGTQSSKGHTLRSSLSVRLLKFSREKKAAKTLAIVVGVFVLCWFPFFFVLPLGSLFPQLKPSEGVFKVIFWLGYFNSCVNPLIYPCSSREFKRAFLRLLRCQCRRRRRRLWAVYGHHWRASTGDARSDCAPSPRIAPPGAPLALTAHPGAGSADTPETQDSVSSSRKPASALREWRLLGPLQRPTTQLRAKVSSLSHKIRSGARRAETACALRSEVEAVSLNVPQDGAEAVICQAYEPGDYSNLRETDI
T1 sequence (P43140 whole entry): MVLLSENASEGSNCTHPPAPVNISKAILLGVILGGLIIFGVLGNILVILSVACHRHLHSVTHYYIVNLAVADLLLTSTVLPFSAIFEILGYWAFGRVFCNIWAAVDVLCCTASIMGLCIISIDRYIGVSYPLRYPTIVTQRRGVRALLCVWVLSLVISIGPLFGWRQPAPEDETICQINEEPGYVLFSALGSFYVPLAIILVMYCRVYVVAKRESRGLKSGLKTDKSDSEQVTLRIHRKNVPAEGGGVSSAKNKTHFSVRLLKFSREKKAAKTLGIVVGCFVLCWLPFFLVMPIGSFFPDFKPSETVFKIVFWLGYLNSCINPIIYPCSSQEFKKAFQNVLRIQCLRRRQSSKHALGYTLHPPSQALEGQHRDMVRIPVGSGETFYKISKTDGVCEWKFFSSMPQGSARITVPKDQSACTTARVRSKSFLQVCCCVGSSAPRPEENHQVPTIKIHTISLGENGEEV

[3] = biological target: Adenosine receptor A2a (Homo sapiens) (UniProt P29274); assay: Inhibition of adenosine receptor A2A (unknown origin) at 10 uM relative to control
Chain of Adenosine receptor A2a (Homo sapiens) (P29274 whole entry): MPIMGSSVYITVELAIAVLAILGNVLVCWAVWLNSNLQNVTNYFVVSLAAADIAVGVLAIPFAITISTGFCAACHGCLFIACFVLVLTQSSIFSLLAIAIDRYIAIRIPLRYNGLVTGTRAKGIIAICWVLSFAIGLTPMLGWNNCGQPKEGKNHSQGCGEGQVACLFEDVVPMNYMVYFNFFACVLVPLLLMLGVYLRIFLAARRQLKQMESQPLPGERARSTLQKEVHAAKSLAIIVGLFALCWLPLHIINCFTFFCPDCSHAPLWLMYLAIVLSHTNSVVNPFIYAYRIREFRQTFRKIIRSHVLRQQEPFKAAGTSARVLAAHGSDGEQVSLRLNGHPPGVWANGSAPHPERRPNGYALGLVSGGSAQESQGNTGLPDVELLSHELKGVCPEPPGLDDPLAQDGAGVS

[4] = biological target: Alpha-1A adrenergic receptor (Homo sapiens) (UniProt P35348); assay: Inhibition of adrenergic alpha-1A receptor (unknown origin) at 10 uM relative to control
Chain of Alpha-1A adrenergic receptor (Homo sapiens) (P35348 whole entry): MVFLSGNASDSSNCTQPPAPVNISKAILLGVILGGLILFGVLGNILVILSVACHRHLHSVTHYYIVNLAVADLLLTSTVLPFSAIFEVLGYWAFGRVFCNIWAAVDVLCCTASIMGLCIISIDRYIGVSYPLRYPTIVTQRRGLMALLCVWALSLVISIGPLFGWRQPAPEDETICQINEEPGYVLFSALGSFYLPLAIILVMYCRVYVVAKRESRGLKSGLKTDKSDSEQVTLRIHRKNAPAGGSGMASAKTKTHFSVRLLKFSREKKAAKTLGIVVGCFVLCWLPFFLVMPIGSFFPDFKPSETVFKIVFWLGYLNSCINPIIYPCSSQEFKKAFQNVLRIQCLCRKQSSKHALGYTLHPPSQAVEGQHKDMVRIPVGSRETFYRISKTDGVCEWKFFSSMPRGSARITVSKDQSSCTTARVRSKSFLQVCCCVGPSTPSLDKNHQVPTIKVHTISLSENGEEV

[5] = biological target: Alpha-2A adrenergic receptor (Homo sapiens) (UniProt P08913); assay: Inhibition of adrenergic alpha-2A receptor (unknown origin) at 10 uM relative to control
Chain of Alpha-2A adrenergic receptor (Homo sapiens) (P08913 whole entry): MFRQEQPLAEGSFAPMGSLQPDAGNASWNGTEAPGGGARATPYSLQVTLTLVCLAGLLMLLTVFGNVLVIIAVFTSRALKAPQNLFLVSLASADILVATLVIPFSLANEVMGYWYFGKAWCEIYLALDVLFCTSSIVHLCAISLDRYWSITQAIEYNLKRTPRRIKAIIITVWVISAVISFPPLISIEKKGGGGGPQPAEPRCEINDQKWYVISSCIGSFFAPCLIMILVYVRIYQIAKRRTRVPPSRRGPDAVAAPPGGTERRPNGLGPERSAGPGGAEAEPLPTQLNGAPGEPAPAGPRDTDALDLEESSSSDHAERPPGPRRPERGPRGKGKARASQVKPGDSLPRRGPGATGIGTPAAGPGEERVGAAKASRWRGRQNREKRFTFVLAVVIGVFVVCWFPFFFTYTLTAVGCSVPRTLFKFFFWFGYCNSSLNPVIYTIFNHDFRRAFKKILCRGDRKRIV

[6] = biological target: Alpha-2A adrenergic receptor (Homo sapiens) (UniProt P08913); assay: Inhibition of adrenergic alpha-2A receptor (unknown origin) at 1 uM relative to control
[7] = biological target: Beta-1 adrenergic receptor (Homo sapiens) (UniProt P08588); assay: Inhibition of adrenergic beta1 receptor (unknown origin) at 10 uM relative to control
Chain of Beta-1 adrenergic receptor (Homo sapiens) (P08588 whole entry, looked up): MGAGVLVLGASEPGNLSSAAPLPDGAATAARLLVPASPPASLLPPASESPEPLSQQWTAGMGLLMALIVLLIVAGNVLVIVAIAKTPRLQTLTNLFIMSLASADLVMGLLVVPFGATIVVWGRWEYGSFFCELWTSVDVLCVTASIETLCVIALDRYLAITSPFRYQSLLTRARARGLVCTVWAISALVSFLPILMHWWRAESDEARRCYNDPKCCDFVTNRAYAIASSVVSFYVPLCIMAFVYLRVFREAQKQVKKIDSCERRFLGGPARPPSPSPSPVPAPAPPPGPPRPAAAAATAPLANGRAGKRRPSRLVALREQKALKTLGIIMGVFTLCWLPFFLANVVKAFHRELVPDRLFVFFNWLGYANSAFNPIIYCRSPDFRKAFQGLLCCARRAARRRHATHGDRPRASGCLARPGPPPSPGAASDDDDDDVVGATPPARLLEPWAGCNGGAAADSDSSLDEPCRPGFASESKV

[8] = biological target: Cannabinoid receptor 2 (Homo sapiens) (UniProt P34972); assay: Inhibition of cannabinoid receptor 2 (unknown origin) at 10 uM relative to control
[9] = biological target: D(1A) dopamine receptor (Homo sapiens) (UniProt P21728); assay: Inhibition of dopamine D1 receptor (unknown origin) at 10 uM relative to control
Chain of D(1A) dopamine receptor (Homo sapiens) (P21728 whole entry): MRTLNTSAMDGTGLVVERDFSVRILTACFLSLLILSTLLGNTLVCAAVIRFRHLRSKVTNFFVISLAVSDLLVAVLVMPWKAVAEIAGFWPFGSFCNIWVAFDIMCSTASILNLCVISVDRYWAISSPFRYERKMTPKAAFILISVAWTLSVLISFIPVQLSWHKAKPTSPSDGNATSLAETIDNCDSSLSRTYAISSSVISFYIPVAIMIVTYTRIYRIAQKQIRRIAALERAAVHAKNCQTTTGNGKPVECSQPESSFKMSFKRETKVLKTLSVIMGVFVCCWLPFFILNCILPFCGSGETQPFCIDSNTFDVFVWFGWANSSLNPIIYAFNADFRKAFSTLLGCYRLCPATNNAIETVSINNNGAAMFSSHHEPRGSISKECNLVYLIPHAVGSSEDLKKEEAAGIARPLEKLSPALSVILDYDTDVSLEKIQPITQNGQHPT

Homo sapiens [10] = organism: Homo sapiens; assay: Inhibition of delta 2-type opioid receptor (unknown origin) at 10 uM relative to control
[11] = biological target: Kappa-type opioid receptor (Homo sapiens) (UniProt P41145); assay: Inhibition of kappa opioid receptor (unknown origin) at 10 uM relative to control
Chain of Kappa-type opioid receptor (Homo sapiens) (P41145 whole entry): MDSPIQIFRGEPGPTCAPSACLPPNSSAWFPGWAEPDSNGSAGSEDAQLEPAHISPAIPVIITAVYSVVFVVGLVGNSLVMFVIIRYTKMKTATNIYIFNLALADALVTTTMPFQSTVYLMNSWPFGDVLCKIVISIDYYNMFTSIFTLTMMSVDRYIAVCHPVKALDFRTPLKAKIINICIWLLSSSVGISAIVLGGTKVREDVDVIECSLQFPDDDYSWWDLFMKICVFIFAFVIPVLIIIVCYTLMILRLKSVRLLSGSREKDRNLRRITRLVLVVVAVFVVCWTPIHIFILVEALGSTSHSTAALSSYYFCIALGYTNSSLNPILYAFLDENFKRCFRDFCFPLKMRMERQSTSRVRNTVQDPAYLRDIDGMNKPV

[12] = biological target: Vasopressin V1a receptor (Homo sapiens) (UniProt P37288); assay: Inhibition of vasopressin V1a receptor (unknown origin) at 10 uM relative to control
Chain of Vasopressin V1a receptor (Homo sapiens) (P37288 whole entry, looked up): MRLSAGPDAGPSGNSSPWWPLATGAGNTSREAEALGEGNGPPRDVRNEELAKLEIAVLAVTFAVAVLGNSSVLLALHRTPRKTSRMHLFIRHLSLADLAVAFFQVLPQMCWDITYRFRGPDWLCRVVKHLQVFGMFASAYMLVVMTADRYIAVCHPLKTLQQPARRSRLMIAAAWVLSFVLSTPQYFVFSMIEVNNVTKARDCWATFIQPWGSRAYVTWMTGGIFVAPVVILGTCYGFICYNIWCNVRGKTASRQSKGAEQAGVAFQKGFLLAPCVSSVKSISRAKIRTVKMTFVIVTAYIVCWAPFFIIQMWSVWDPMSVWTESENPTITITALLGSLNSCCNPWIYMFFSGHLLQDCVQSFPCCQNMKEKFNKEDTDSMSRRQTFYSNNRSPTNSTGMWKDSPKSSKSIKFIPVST

[13] = biological target: 5-hydroxytryptamine receptor 7 (Homo sapiens) (UniProt P34969); assay: Inhibition of 5-HT7 (unknown origin) at 1 uM relative to control
Chain of 5-hydroxytryptamine receptor 7 (Homo sapiens) (P34969 whole entry): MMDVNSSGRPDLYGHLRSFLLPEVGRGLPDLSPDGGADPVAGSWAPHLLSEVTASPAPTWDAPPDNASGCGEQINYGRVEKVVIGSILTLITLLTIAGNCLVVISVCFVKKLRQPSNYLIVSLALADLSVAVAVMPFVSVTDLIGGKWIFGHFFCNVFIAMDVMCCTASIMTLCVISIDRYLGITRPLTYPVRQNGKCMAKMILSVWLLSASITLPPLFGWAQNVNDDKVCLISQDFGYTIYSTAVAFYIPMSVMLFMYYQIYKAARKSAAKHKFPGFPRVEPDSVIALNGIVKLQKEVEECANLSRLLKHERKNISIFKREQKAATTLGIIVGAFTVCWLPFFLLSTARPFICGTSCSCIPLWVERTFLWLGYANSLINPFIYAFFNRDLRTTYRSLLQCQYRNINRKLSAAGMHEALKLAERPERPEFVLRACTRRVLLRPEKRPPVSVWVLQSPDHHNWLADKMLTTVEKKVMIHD

[14] = biological target: Sodium-dependent serotonin transporter (Homo sapiens) (UniProt P31645); assay: Inhibition of serotonin transporter (unknown origin) at 10 uM relative to control
Chain of Sodium-dependent serotonin transporter (Homo sapiens) (P31645 whole entry, looked up): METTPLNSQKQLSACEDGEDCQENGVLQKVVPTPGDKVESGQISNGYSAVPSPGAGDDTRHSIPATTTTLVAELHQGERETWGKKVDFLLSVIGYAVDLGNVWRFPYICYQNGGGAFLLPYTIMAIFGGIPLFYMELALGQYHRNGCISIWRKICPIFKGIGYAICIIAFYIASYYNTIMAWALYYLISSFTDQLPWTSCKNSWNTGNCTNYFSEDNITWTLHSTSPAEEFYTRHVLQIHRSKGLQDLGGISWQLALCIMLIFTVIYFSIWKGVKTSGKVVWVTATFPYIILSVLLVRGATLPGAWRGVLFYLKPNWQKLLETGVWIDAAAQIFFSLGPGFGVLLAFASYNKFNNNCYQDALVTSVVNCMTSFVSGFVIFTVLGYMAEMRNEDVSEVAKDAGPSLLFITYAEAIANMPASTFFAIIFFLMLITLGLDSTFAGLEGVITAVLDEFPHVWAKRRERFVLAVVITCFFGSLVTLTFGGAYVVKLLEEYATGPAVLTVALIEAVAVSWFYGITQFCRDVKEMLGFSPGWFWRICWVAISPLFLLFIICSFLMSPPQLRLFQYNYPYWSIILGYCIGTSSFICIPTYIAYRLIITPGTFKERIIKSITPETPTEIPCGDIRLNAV

Homo sapiens [15] = organism: Homo sapiens; assay: Inhibition of L-type calcium channel dihydropyridine binding site (unknown origin) at 10 uM relative to control
[16] = Aqueous solubility of compound in simulated intestinal fluid at 200 uM; format: physicochemical
[17] = Permeability of compound across basolateral to apical side in human Caco-2 cells at pH 7.4; format: ADME, cell-based; conditions: Caco-2, pH 7.4, read-out: permeability
[18] = biological target: Histamine H1 receptor (Homo sapiens) (UniProt P35367); assay: Displacement of [3H]-pyrilamine from human recombinant histamine H1 receptor stably expressed in CHO-K1 cell membranes at 1 uM measured after 60 mins by microbeta2 scintillation counting analysis relative to control; conditions: Cell membrane
Chain of Histamine H1 receptor (Homo sapiens) (P35367 whole entry): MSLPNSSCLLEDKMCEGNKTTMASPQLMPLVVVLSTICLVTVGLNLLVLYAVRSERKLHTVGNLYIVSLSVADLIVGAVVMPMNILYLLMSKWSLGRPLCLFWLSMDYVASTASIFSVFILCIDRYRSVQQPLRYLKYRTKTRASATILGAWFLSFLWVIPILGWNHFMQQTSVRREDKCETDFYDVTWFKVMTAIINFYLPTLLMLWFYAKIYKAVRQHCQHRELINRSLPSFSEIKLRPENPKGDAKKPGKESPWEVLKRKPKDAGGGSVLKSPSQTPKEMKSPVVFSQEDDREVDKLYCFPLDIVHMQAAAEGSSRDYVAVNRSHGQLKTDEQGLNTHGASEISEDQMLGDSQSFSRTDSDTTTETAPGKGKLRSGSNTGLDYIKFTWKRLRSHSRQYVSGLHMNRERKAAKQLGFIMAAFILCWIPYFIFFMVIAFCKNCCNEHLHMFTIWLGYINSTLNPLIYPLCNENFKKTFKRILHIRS

Rattus norvegicus [19] = assay: In vivo biased agonist activity at 5-HT1A receptor in rat prefrontal brain cortex assessed as increase in ERK1/2 phosphorylation levels at 0.04 to […], po measured at 15 mins by Alphalisa assay; format: functional, organism-based; conditions: dose lower 0.04 mg/kg, dose upper […]
Rattus norvegicus [20] = assay: Antidepressant-like activity in Wistar rat assessed as minimum effective dose causing reduction in immobility time after oral administration with compound 60 mins prior to testing and measured for 5 mins test period by Porsolt-forced swim test; format: functional; conditions: 1.083 h, time 65 min, read-out: MED
Rattus norvegicus [21] = assay: Antidepressant-like activity in Wistar rat assessed as maximum effective dose causing reduction in immobility time after oral administration with compound 60 mins prior to testing and measured for 5 mins test period by Porsolt-forced swim test; format: functional; conditions: time 65 min; 1.083 h

Compound: O=C(c1ccc(F)c(Cl)c1)N1CCC(F)(CNCCOc2ccccn2)CC1
- EC [1]: 17.2 ng/mL
- pKi [2]: 6.78
- inhibition [3]: 11.8%
- inhibition [4]: 99.7%
- inhibition [5]: 94.3%
- inhibition [6]: 29.9%
- inhibition [7]: 2.2%
- inhibition [8]: -3.1%
- inhibition [9]: 38.2%
- inhibition (Homo sapiens [10]): 7.2%
- inhibition [11]: 34.6%
- inhibition [12]: 7%
- inhibition [13]: 13.2%
- inhibition [14]: 0.9%
- inhibition (Homo sapiens [15]): 18.2%
- solubility at 200 µM [16]: 192 µM (≈ 78.8 µg/mL)
- Papp B→A [17]: 22.4 ×10⁻⁶ cm/s
- Activity [18]: < 50%
- Activity (Rattus norvegicus [19]): Active
- minimal effective dose (Rattus norvegicus [20]): 0.16 mg/kg
- ED (Rattus norvegicus [21]): 2.5 mg/kg

— ChEMBL document CHEMBL4706479, “Novel Aryloxyethyl Derivatives of 1-(1-Benzoylpiperidin-4-yl)methanamine as the Extracellular Regulated Kinases 1/2 (ERK1/2) Phosphorylation-Preferring Serotonin 5-HT Receptor-Biased Agonists with Robust Antidepressant-like Activity” (J Med Chem, 2019)
